The values below come from US20240148821A1, “PHARMACEUTICAL USE OF CYCLIC PEPTIDE COMPOUND” (CHUGAI SEIYAKU KABUSHIKI KAISHA, priority 2021, published 2024).

Bridge positions count the residues as written; N and C are the ends. Square brackets hold non-standard residues; d marks the D form. Peptide text beside a SMILES is read from it. * marks the point of attachment. hPhe(3,5-F2-4-CF3) = N[C@@H](CCc1cc(F)c(C(F)(F)F)c(F)c1)C(=O)O; hPhe(3-Cl-4-CF3) = N[C@@H](CCc1ccc(C(F)(F)F)c(Cl)c1)C(=O)O; hPhe(3-F,4-CF3) = N[C@@H](CCc1ccc(C(F)(F)F)c(F)c1)C(=O)O; NMePhe(4-Me) = CN[C@@H](Cc1ccc(C)cc1)C(=O)O; NMeAla(cPent) = CN[C@@H](CC1CCCC1)C(=O)O; NMeGly(cPent) = CN[C@H](C(=O)O)C1CCCC1; Pro(4,4-F2) = O=C(O)[C@@H]1CC(F)(F)CN1; NMeCha = CN[C@@H](CC1CCCCC1)C(=O)O; NMeGly(cPr) = CN[C@H](C(=O)O)C1CC1; Hyp = O=C(O)[C@@H]1C[C@@H](O)CN1; NEtLeu = CCN[C@@H](CC(C)C)C(=O)O; NMeChg = CN[C@H](C(=O)O)C1CCCCC1; NMeI = CC[C@H](C)[C@H](NC)C(=O)O; NMeT = CN[C@H](C(=O)O)[C@@H](C)O; X17 = FC1(F)CN(*)CC(F)(F)C1(F)F; NMeD = CN[C@@H](CC(=O)O)C(=O)O; NMeL = CN[C@@H](CC(C)C)C(=O)O; NMeNva = CCC[C@H](NC)C(=O)O; NMeV = CN[C@H](C(=O)O)C(C)C; NMeS = CN[C@@H](CO)C(=O)O; Morpholide = C1CN(*)CCO1; NMeA = CN[C@@H](C)C(=O)O; Piperidide = C1CCN(*)CC1; Pyrrolidide = C1CCN(*)C1; Ac5c = NC1(C(=O)O)CCCC1; Aze = O=C(O)[C@@H]1CCN1; Sar = CNCC(=O)O

Experiment [1] deals with protein-protein interaction between Kras and SOS1 (biotin-tagged human Kras loaded with GDP, His-tagged human SOS1) (Homo sapiens (Human), UniProt P01116, G12D). Description: Protein-protein interaction inhibition between Kras and SOS1 (KrasG12D-SOS PPI) using AlphaScreen.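 Note: kras produced in E. coli, Ni-coupled donor beads and streptavidin acceptor beads, excitation 680 nm with emission detected at 520–620 nm via singlet oxygen transfer.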 To be noted: AlphaScreen; biotin-tagged human Kras loaded with GDP, His-tagged human SOS1; read-out: KRAS G12D-SOS PPI IC50. Format: biochemical. On the technique in general: In Alpha technology, singlet oxygen from a donor bead excites a nearby acceptor bead.

Experiment [2] deals with Human pancreatic cancer cell line AsPC-1 (G12D mutation Kras). Description: AsPC-1 cell growth inhibition (AsPC-1 CGI). In kind it is cell-based. The note with it: read-out: AsPC-1 cell growth inhibition, 50% growth inhibitory concentration (IC50 value); 96 hours, CellTiter-Glo, values classified in ranges. (ATP-based viability assays read luminescence as a measure of living cells.)

Consider `CC[C@H](C)[C@@H]1NC(=O)[C@H](CC(C)C)N(C)C(=O)C[C@@H](C(=O)N(C)C)N(C)C(=O)[C@H]([C@@H](C)CC)N(C)C(=O)[C@H](C)NC(=O)[C@@H]2CCCN2C(=O)[C@H](CCc2ccc(C(F)(F)F)c(Cl)c2)NC(=O)CN(C)C(=O)[C@H](Cc2ccc(C)cc2)N(C)C(=O)[C@@H]2CCN2C(=O)[C@H](C)N(C)C1=O` [Compound 829] ([NMeL]I[NMeA][Aze][NMePhe(4-Me)][Sar][hPhe(3-Cl-4-CF3)]PA[NMeI][NMeD]-NMe2; lactam N-11), for which the IC50 in experiment [1] is 2.3 nM; in experiment [2] it was greater than 500 nM.
For `CC[C@H](C)[C@@H]1NC(=O)[C@H](CC(C)C)N(C)C(=O)C[C@@H](C(=O)N2CCCCC2)N(C)C(=O)[C@H](C(C)C)N(C)C(=O)C2(CCCC2)NC(=O)[C@@H]2CCCN2C(=O)[C@H](CCc2ccc(C(F)(F)F)c(F)c2)NC(=O)CN(C)C(=O)[C@H](CC2CCCCC2)N(C)C(=O)CN(C)C(=O)[C@@H]2CCN2C1=O` [Compound 139] ([NMeL]I[Aze][Sar][NMeCha][Sar][hPhe(3-F,4-CF3)]P[Ac5c][NMeV][NMeD]-Piperidide; lactam N-11) the same measures were 8.4 nM and greater than 500 nM.
For `CC[C@H](C)[C@@H]1NC(=O)[C@H](CC(C)C)N(C)C(=O)C[C@@H](C(=O)N2CCCCC2)N(C)C(=O)[C@H](C(C)C)N(C)C(=O)C2(CCCC2)NC(=O)[C@@H]2CCCN2C(=O)[C@H](CCc2ccc(C(F)(F)F)c(Cl)c2)NC(=O)CN(C)C(=O)[C@H]([C@@H](C)O)N(C)C(=O)[C@@H]2CCN2C(=O)[C@H](C)N(C)C1=O` [Compound 862] ([NMeL]I[NMeA][Aze][NMeT][Sar][hPhe(3-Cl-4-CF3)]P[Ac5c][NMeV][NMeD]-Piperidide; lactam N-11) the same measures were 2.7 nM and greater than 500 nM.
On the same counts, the results for `CC[C@H](C)[C@@H]1NC(=O)[C@H](CC(C)C)N(C)C(=O)C[C@@H](C(=O)N2CCOCC2)N(C)C(=O)[C@H](C2CCCC2)N(C)C(=O)C2(CCCC2)NC(=O)[C@@H]2CCCN2C(=O)[C@H](CCc2cc(F)c(C(F)(F)F)c(F)c2)NC(=O)CN(C)C(=O)[C@H](C2CCCC2)N(C)C(=O)[C@@H]2CCN2C(=O)[C@H](C)N(C)C1=O` [Compound 1336] ([NMeL]I[NMeA][Aze][NMeGly(cPent)][Sar][hPhe(3,5-F2-4-CF3)]P[Ac5c][NMeGly(cPent)][NMeD]-Morpholide; lactam N-11) are 0.66 nM and no more than 20 nM.
As for `CC[C@H](C)[C@@H]1NC(=O)[C@H](CC(C)C)N(C)C(=O)C[C@@H](C(=O)N2CC(F)(F)C(F)(F)C(F)(F)C2)N(C)C(=O)[C@H](C2CCCCC2)N(C)C(=O)C2(CCCC2)NC(=O)[C@@H]2CCCN2C(=O)[C@H](CCc2ccc(C(F)(F)F)c(Cl)c2)NC(=O)CN(C)C(=O)[C@H](CC2CCCCC2)N(C)C(=O)CN(C)C(=O)CN(C)C1=O` [Compound 1229] ([NMeL]I[Sar][Sar][NMeCha][Sar][hPhe(3-Cl-4-CF3)]P[Ac5c][NMeChg][NMeD]-X17; lactam N-11), the figures for the IC50 in experiment [1] and in experiment [2] were 46 nM and greater than 500 nM, respectively.
Turning to `CC[C@H](C)[C@@H]1NC(=O)[C@H](CC(C)C)N(C)C(=O)C[C@@H](C(=O)N2CCCCC2)N(C)C(=O)[C@H](C2CCCCC2)N(C)C(=O)C2(CCCC2)NC(=O)[C@H](CC2CCCC2)N(C)C(=O)[C@H](CCc2ccc(C(F)(F)F)c(Cl)c2)NC(=O)CN(C)C(=O)[C@H](CC2CCCCC2)N(C)C(=O)CN(C)C(=O)CN(C)C1=O` [Compound 643] ([NMeL]I[Sar][Sar][NMeCha][Sar][hPhe(3-Cl-4-CF3)][NMeAla(cPent)][Ac5c][NMeChg][NMeD]-Piperidide; lactam N-11), the IC50 in experiment [1] was 27 nM; in experiment [2] it was greater than 500 nM.
On the same counts, the results for `CCC[C@H]1C(=O)N[C@@H]([C@@H](C)CC)C(=O)N(C)CC(=O)N(C)CC(=O)N(C)[C@@H](CC2CCCCC2)C(=O)N(C)CC(=O)N[C@@H](CCc2ccc(C(F)(F)F)c(Cl)c2)C(=O)N2C[C@H](OCC)C[C@H]2C(=O)NC2(CCCC2)C(=O)N(C)[C@@H](C2CCCCC2)C(=O)N(C)[C@H](C(=O)N2CCCC2)CC(=O)N1C` [Compound 1267] ([NMeNva]I[Sar][Sar][NMeCha][Sar][hPhe(3-Cl-4-CF3)][Hyp](Et)[Ac5c][NMeChg][NMeD]-Pyrrolidide; lactam N-11) are 0.36 nM and no more than 20 nM.
Take `CC[C@H](C)[C@@H]1NC(=O)[C@H](CC(C)C)N(C)C(=O)C[C@@H](C(=O)N(C)C)N(C)C(=O)[C@H](C2CCCC2)N(C)C(=O)C2(CCCC2)NC(=O)[C@@H]2CC(F)(F)CN2C(=O)[C@H](CCc2ccc(C(F)(F)F)c(F)c2)NC(=O)CN(C)C(=O)[C@H](CC2CCCCC2)N(C)C(=O)[C@@H]2CCN2C(=O)[C@H](C)N(C)C1=O` [Compound 1264] ([NMeL]I[NMeA][Aze][NMeCha][Sar][hPhe(3-F,4-CF3)][Pro(4,4-F2)][Ac5c][NMeGly(cPent)][NMeD]-NMe2; lactam N-11): the IC50 is 0.54 nM in experiment [1] and no more than 20 nM in experiment [2].
With `CC[C@H](C)[C@@H]1NC(=O)[C@H](CC(C)C)N(CC)C(=O)C[C@@H](C(=O)N(C)C)N(C)C(=O)[C@H]([C@@H](C)CC)N(C)C(=O)C2(CCCC2)NC(=O)[C@@H]2CCCN2C(=O)[C@H](CCc2ccc(C(F)(F)F)c(Cl)c2)NC(=O)CN(C)C(=O)[C@H](Cc2ccc(C)cc2)N(C)C(=O)[C@@H]2CCN2C(=O)[C@H](C)N(C)C1=O` [Compound 1365] ([NEtLeu]I[NMeA][Aze][NMePhe(4-Me)][Sar][hPhe(3-Cl-4-CF3)]P[Ac5c][NMeI][NMeD]-NMe2; lactam N-11), the IC50 is 1.2 nM in experiment [1] and no more than 20 nM in experiment [2].
On the same counts, the results for `CC[C@H](C)[C@@H]1NC(=O)[C@H](CO)N(C)C(=O)C[C@@H](C(=O)N2CCCCC2)N(C)C(=O)[C@H](C(C)C)N(C)C(=O)C2(CCCC2)NC(=O)[C@@H]2CCCN2C(=O)[C@H](CCc2ccc(C(F)(F)F)c(Cl)c2)NC(=O)CN(C)C(=O)[C@H](CC2CCCCC2)N(C)C(=O)[C@@H]2CCN2C(=O)[C@H](C)N(C)C1=O` [Compound 1837] ([NMeS]I[NMeA][Aze][NMeCha][Sar][hPhe(3-Cl-4-CF3)]P[Ac5c][NMeV][NMeD]-Piperidide; lactam N-11) are 2 nM and greater than 500 nM.
On the same counts, the results for `CC[C@H](C)[C@@H]1NC(=O)[C@H](CC(C)C)N(C)C(=O)C[C@@H](C(=O)N2CCCCC2)N(C)C(=O)[C@H](C2CC2)N(C)C(=O)C2(CCCC2)NC(=O)[C@@H]2CCCN2C(=O)[C@H](CCc2ccc(C(F)(F)F)c(Cl)c2)NC(=O)CN(C)C(=O)[C@H](CC2CCCCC2)N(C)C(=O)[C@@H]2CCN2C(=O)[C@H](C)N(C)C1=O` [Compound 1822] ([NMeL]I[NMeA][Aze][NMeCha][Sar][hPhe(3-Cl-4-CF3)]P[Ac5c][NMeGly(cPr)][NMeD]-Piperidide; lactam N-11) are 50 nM and greater than 500 nM.
On the same counts, the results for `CC[C@H](C)[C@@H]1NC(=O)[C@H](CC(C)C)N(C)C(=O)C[C@@H](C(=O)N2CCOCC2)NC(=O)[C@H](C(C)C)N(C)C(=O)C2(CCCC2)NC(=O)[C@@H]2CCCN2C(=O)[C@H](CCc2ccc(C(F)(F)F)c(Cl)c2)NC(=O)CN(C)C(=O)[C@H](CC2CCCCC2)N(C)C(=O)[C@@H]2CCN2C(=O)[C@H](C)N(C)C1=O` [Compound 1200] ([NMeL]I[NMeA][Aze][NMeCha][Sar][hPhe(3-Cl-4-CF3)]P[Ac5c][NMeV]D-Morpholide; lactam N-11) are 45 nM and greater than 500 nM.
